Data published in ChEMBL document CHEMBL1201862, “PubChem BioAssay data set” (2004).
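These data come from cells grown in 96-well plates and exposed to compound for 48 hours at five concentrations. GI50 is the concentration that inhibits growth by half.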 Activity calls are given as the source filed them. No stated cut-off is given here; in the data, active = GI50 up to about 1.1 µM and inactive = higher.

Assays:
Assay in all cases: growth of human tumour cells (NCI), 48 h
A498 = tested on: A498
K562 = tested on: K562
SF-539 = tested on: SF-539
COLO 205 = tested on: COLO 205
HL-60 = tested on: HL-60
UACC-257 = tested on: UACC-257
SF-295 = tested on: SF-295
RPMI-8226 = tested on: RPMI-8226
IGROV-1 = tested on: IGROV-1
NCI-H460 = tested on: NCI-H460
HT-29 = tested on: HT-29
DU-145 = tested on: DU-145
LOX IMVI = tested on: LOX IMVI
MCF7 = tested on: MCF7
MDA-N = tested on: MDA-N
MDA-MB-435 = tested on: MDA-MB-435
786-0 = tested on: 786-0
SNB-19 = tested on: SNB-19
UACC-62 = tested on: UACC-62
PC-3 = tested on: PC-3

Measured: GI50

CCCN1C(=O)CN(S(=O)(=O)c2ccc(Cl)cc2)C1=O
inactive: A498 > 100 µM | K562 > 100 µM | SF-539 > 100 µM | COLO 205 > 100 µM | HL-60 > 100 µM | UACC-257 > 100 µM | SF-295 > 100 µM | RPMI-8226 > 100 µM | IGROV-1 > 100 µM | NCI-H460 > 100 µM | HT-29 > 100 µM | DU-145 > 100 µM | LOX IMVI > 100 µM | MCF7 > 100 µM | MDA-N > 100 µM | MDA-MB-435 > 100 µM | 786-0 > 100 µM | SNB-19 > 100 µM | UACC-62 > 100 µM | PC-3 > 100 µM

Cn1c(N/N=C/c2ccc(Cl)cc2)nc(-c2ccc(Cl)cc2)c(C#N)c1=O
inactive: A498 32.1 µM | K562 > 100 µM | SF-539 21.8 µM | COLO 205 47 µM | HL-60 44.7 µM | UACC-257 72.3 µM | SF-295 17.5 µM | RPMI-8226 33.3 µM | IGROV-1 6.73 µM | NCI-H460 27 µM | HT-29 41.1 µM | DU-145 22.5 µM | LOX IMVI 25.2 µM | MCF7 21.1 µM | MDA-N 53.2 µM | MDA-MB-435 29.9 µM | 786-0 15.3 µM | SNB-19 > 100 µM | UACC-62 22 µM | PC-3 26.8 µM

N=C(N)NS(=O)(=O)c1ccc(NC(=O)c2cccc3c(NNc4ccc(C(=O)O)cc4)c4ccccc4nc23)cc1
inactive: A498 24.4 µM | K562 50.1 µM | SF-539 71.3 µM | COLO 205 65 µM | HL-60 32.6 µM | UACC-257 > 100 µM | SF-295 > 100 µM | RPMI-8226 > 100 µM | IGROV-1 > 100 µM | NCI-H460 67.3 µM | HT-29 41.4 µM | DU-145 48.5 µM | LOX IMVI 48.4 µM | MCF7 > 100 µM | MDA-N > 100 µM | MDA-MB-435 95.7 µM | 786-0 > 100 µM | SNB-19 57.8 µM | UACC-62 70.1 µM | PC-3 46.3 µM

C/C(=C1/N=C(c2ccccc2)OC1=O)c1cccs1
inactive: A498 > 100 µM | K562 > 100 µM | SF-539 > 100 µM | COLO 205 > 100 µM | HL-60 > 100 µM | UACC-257 > 100 µM | SF-295 > 100 µM | RPMI-8226 > 100 µM | IGROV-1 63.7 µM | NCI-H460 > 100 µM | HT-29 > 100 µM | DU-145 > 100 µM | LOX IMVI > 100 µM | MCF7 > 100 µM | MDA-N > 100 µM | MDA-MB-435 > 100 µM | 786-0 76 µM | SNB-19 > 100 µM | UACC-62 > 100 µM | PC-3 > 100 µM

Cc1c2oc(=O)c(C#N)cc2c2ccccn12
inactive: A498 > 100 µM | K562 > 100 µM | SF-539 81.7 µM | COLO 205 > 100 µM | HL-60 > 100 µM | UACC-257 > 100 µM | SF-295 20.2 µM | RPMI-8226 > 100 µM | IGROV-1 > 100 µM | NCI-H460 32.5 µM | HT-29 > 100 µM | DU-145 > 100 µM | LOX IMVI 71.9 µM | MCF7 > 100 µM | MDA-N > 100 µM | MDA-MB-435 > 100 µM | 786-0 > 100 µM | SNB-19 > 100 µM | UACC-62 > 100 µM | PC-3 > 100 µM

O=c1c2cc(I)ccc2nc(SCc2n[nH]c(=S)o2)n1Cc1ccccc1
inactive: A498 18.6 µM | K562 14.4 µM | SF-539 16.1 µM | COLO 205 10.6 µM | HL-60 4.71 µM | UACC-257 18.1 µM | SF-295 17.3 µM | RPMI-8226 16.3 µM | IGROV-1 16.6 µM | NCI-H460 19.1 µM | HT-29 22.3 µM | DU-145 16.3 µM | LOX IMVI 15.7 µM | MCF7 15.9 µM | MDA-N 17.3 µM | MDA-MB-435 19.3 µM | 786-0 16.7 µM | SNB-19 22.3 µM | UACC-62 12.5 µM | PC-3 15.7 µM

O=C(NCCCCCCNC(=O)n1cc(F)c(=O)[nH]c1=O)NCCCOCCOCCOCCOCCOCCOCCOCCOCCOCCOCCOCCOCCOCCOCCOCCOCCOCCOCCOCCOCCOCCCNC(=O)C(O)C(O)C(OC1OC(CO)C(O)C(O)C1O)C(O)CO (stereo not given)
inactive: A498 18.6 µM | K562 52.4 µM | SF-539 1.67 µM | COLO 205 15.3 µM | HL-60 43.7 µM | UACC-257 59.4 µM | SF-295 64.9 µM | RPMI-8226 17 µM | IGROV-1 33.7 µM | NCI-H460 3.58 µM | HT-29 11 µM | DU-145 27.7 µM | LOX IMVI 18.9 µM | MCF7 6.07 µM | MDA-N 10 µM | MDA-MB-435 19.3 µM | 786-0 17.8 µM | SNB-19 88.3 µM | UACC-62 27.9 µM | PC-3 55.2 µM
